Measurements reported in patent publication US8507674B2, “Quorum sensing inhibitor” (The University of Tokyo, priority 2007, dated 2013).

How the values were obtained:
[1] = system: Burkholderia glumae; assay: Test Example 3: number of microorganisms versus culturing time and concentration; type: cell-based; details: 80 μM or 100 μM, 20 to 40 hours culturing, FIG. 2
Description: Burkholderia glumae was inoculated into an LB culture medium, and cultured at 37° C. overnight. The thus-obtained culture solution was subjected to bacterial collection using a centrifuge, washed with an LB culture medium twice using a fresh LB culture medium each time. To the bacterial cell a fresh LB culture medium was added to prepare a culture suspension of about 3.0×10^5 cfu/mL. Thereafter, Compound (1) produced in Production Example 1 was added to the culture suspension in such a manner that its final concentration became a predetermined value (i.e., 0 μM, 80 μM, or 100 μM), followed by shake culturing for 40 hours. The number of microorganisms in the culture solution after a predetermined time (i.e., 20, 24, 28, 32, 36 and 40 hours) was obtained by the following procedure. Specifically, a portion of the culture solution was removed and diluted 1,000-fold, and then seeded to an LB culture medium agar plate. The number of colonies was counted to obtain the number of microorganisms.

[2] = system: Burkholderia glumae; assay: Test Example 5: onset of infection on rice, test liquid sprayed before infection; type: in vivo; details: for percentage of flower clusters with score 0: score 0 = less than 0.1% diseased; for percentage of flower clusters with score 0 / percentage of flower clusters with score 1 / percentage of flower clusters with score 2 / percentage of flower clusters with score 3 / percentage of flower clusters with score 4 / percentage of flower clusters with score 5: rice, 7 days; for percentage of flower clusters with score 1: score 1 = 0.1-20% diseased; for percentage of flower clusters with score 2: score 2 = 20-40% diseased; for percentage of flower clusters with score 3: score 3 = 40-60% diseased; for percentage of flower clusters with score 4: score 4 = 60-80% diseased; for percentage of flower clusters with score 5: score 5 = 80-100% diseased
Description: A dimethyl formamide solution (1,000 ppm) of Compound (1) was diluted with water to have a predetermined concentration (50, 100 or 200 μM) to prepare a test liquid. In a separate procedure, Burkholderia glumae were seeded to an LB culture medium and cultured overnight at 37° C., preparing a culture solution for infection.
Each test liquid (10 mL) was sprayed onto Korean rice (Milyang 23) raised in a hothouse until the flowering stage. The culture solution for infection was sprayed onto the rice one hour after the application of the test liquid. After cultivation for seven days, the onset of Burkholderia glumae infection on the rice was evaluated.
The evaluation was conducted by picking an ear from each plant, making a total of three ears. In each flower cluster (grain), the percentage of the portion that suffered from the onset of disease (i.e., the portion that turned brown) caused by the toxoflavin produced by Burkholderia glumae was visually observed and scored based on the scale shown below. The percentage of the total flower clusters was obtained and scored to indicate the onset of the disease.
The percentage that suffered from the onset of disease:
Not less than 0.1% and not greater than 20%: 1
Not less than 20% and not greater than 40%: 2
Not less than 40% and not greater than 60%: 3
Not less than 60% and not greater than 80%: 4
In this evaluation, three flower clusters (grains) having the same conditions were prepared, and reproducibility was confirmed by repeating the same evaluation three times. The same evaluation was also conducted as a comparative test except that water was used instead of the test liquid. Further, the same evaluation was conducted to serve as a blank except that water was used instead of both the test liquid and the culture solution for infection.

[3] = 50 μM sprayed 1 h before infection
[4] = 100 μM sprayed 1 h before infection
[5] = 200 μM sprayed 1 h before infection

CCCc1cc(=O)n2cccc(O)c2n1 [Compound (1), 2-n-propyl-9-hydroxy-4H-pyrid[1,2-a]pyrimidin-4-one]
control effect against Burkholderia glumae (number of microorganisms) [1]: excellent control effect | percentage of flower clusters with score 0 [2, 3]: 68% | percentage of flower clusters with score 0 [2, 4]: 80% | percentage of flower clusters with score 0 [2, 5]: 82% | percentage of flower clusters with score 1 [2, 3]: 7% | percentage of flower clusters with score 1 [2, 4]: 6% | percentage of flower clusters with score 1 [2, 5]: 6% | percentage of flower clusters with score 2 [2, 3]: 6% | percentage of flower clusters with score 2 [2, 4]: 4% | percentage of flower clusters with score 2 [2, 5]: 6% | percentage of flower clusters with score 3 [2, 3]: 7% | percentage of flower clusters with score 3 [2, 4]: 3% | percentage of flower clusters with score 3 [2, 5]: 2% | percentage of flower clusters with score 4 [2, 3]: 6% | percentage of flower clusters with score 4 [2, 4]: 3% | percentage of flower clusters with score 4 [2, 5]: 2% | percentage of flower clusters with score 5 [2, 3]: 6% | percentage of flower clusters with score 5 [2, 4]: 4% | percentage of flower clusters with score 5 [2, 5]: 2% | onset of Burkholderia glumae on rice ([2]; test liquid 50, 100 or 200 μM sprayed before the culture solution for infection): prevented
